Columns and labels:
[1] = Liquid, Vibrating tube method
[2] = molar heat capacity at constant pressure; conditions: Liquid, Small sample (50 mg) DSC

CCCCCCN [1-hexanamine]
Conditions	mass density, [1] [kg/m3]	molar heat capacity at constant pressure, [2] [J/K/mol]
293.15 K, 100 kPa	765	–
293.15 K, 10000 kPa	771.2	–
293.15 K, 20000 kPa	777.4	–
293.15 K, 30000 kPa	783.2	–
293.15 K, 40000 kPa	788.6	–
293.15 K, 50000 kPa	793.7	–
293.15 K, 60000 kPa	798.6	–
293.15 K, 70000 kPa	803.1	–
293.15 K, 80000 kPa	807.5	–
293.15 K, 90000 kPa	811.8	–
293.15 K, 100000 kPa	815.8	–
293.15 K, 110000 kPa	819.6	–
293.15 K, 120000 kPa	823.3	–
293.15 K, 130000 kPa	826.9	–
293.15 K, 140000 kPa	830.3	–
313.15 K, 100 kPa	–	253.5
313.15 K, 20000 kPa	–	251
313.15 K, 40000 kPa	–	250.1
313.15 K, 60000 kPa	–	248.9
323.15 K, 100 kPa	–	253.7
323.15 K, 20000 kPa	–	251.5
323.15 K, 40000 kPa	–	250.5
323.15 K, 60000 kPa	–	249.3
333.15 K, 100 kPa	–	254.4
333.15 K, 20000 kPa	–	252.4
333.15 K, 40000 kPa	–	251.2
333.15 K, 60000 kPa	–	250.1
343.15 K, 100 kPa	–	255.7
343.15 K, 20000 kPa	–	253.6
343.15 K, 40000 kPa	–	252.3
343.15 K, 60000 kPa	–	251.3
353.15 K, 100 kPa	712.4	257.5
353.15 K, 10000 kPa	722.4	–
353.15 K, 20000 kPa	731.1	255.2
353.15 K, 30000 kPa	739.1	–
353.15 K, 40000 kPa	746.2	253.8
353.15 K, 50000 kPa	752.8	–
353.15 K, 60000 kPa	758.9	252.8
353.15 K, 70000 kPa	764.7	–
353.15 K, 80000 kPa	770.1	–
353.15 K, 90000 kPa	775.2	–
353.15 K, 100000 kPa	780.1	–
353.15 K, 110000 kPa	784.7	–
353.15 K, 120000 kPa	789.2	–
353.15 K, 130000 kPa	793.4	–
353.15 K, 140000 kPa	797.5	–
363.15 K, 100 kPa	703.9	259.8
363.15 K, 10000 kPa	714.4	–
363.15 K, 20000 kPa	723.6	257.2
363.15 K, 30000 kPa	731.9	–
363.15 K, 40000 kPa	739.3	255.6
363.15 K, 50000 kPa	746.2	–
363.15 K, 60000 kPa	752.6	254.7
363.15 K, 70000 kPa	758.5	–
363.15 K, 80000 kPa	764.1	–
363.15 K, 90000 kPa	769.4	–
363.15 K, 100000 kPa	774.4	–
363.15 K, 110000 kPa	779.1	–
363.15 K, 120000 kPa	783.6	–
363.15 K, 130000 kPa	787.9	–
363.15 K, 140000 kPa	792.1	–
373.15 K, 100 kPa	694.8	262.6
373.15 K, 10000 kPa	706	–
373.15 K, 20000 kPa	716	259.6
373.15 K, 30000 kPa	724.5	–
373.15 K, 40000 kPa	732.4	257.8
373.15 K, 50000 kPa	739.5	–
373.15 K, 60000 kPa	746.1	256.9
373.15 K, 70000 kPa	752.2	–
373.15 K, 80000 kPa	758.1	–
373.15 K, 90000 kPa	763.5	–
373.15 K, 100000 kPa	768.7	–
373.15 K, 110000 kPa	773.5	–
373.15 K, 120000 kPa	778.2	–
373.15 K, 130000 kPa	782.6	–
373.15 K, 140000 kPa	786.9	–
383.15 K, 100 kPa	686.1	–
383.15 K, 10000 kPa	698.2	–
383.15 K, 20000 kPa	708.6	262.3
383.15 K, 30000 kPa	717.6	–
383.15 K, 40000 kPa	725.8	260.3
383.15 K, 50000 kPa	733.3	–
383.15 K, 60000 kPa	740.2	259.5
383.15 K, 70000 kPa	746.5	–
383.15 K, 80000 kPa	752.5	–
383.15 K, 90000 kPa	758.1	–
383.15 K, 100000 kPa	763.4	–
383.15 K, 110000 kPa	768.3	–
383.15 K, 120000 kPa	773.2	–
383.15 K, 130000 kPa	777.7	–
383.15 K, 140000 kPa	782	–
393.15 K, 100 kPa	676.2	–
393.15 K, 10000 kPa	689.2	–
393.15 K, 20000 kPa	700.3	265.3
393.15 K, 30000 kPa	709.8	–
393.15 K, 40000 kPa	718.4	263.1
393.15 K, 50000 kPa	726.6	–
393.15 K, 60000 kPa	733.7	262.4
393.15 K, 70000 kPa	740.3	–
393.15 K, 80000 kPa	746.5	–
393.15 K, 90000 kPa	752.2	–
393.15 K, 100000 kPa	757.7	–
393.15 K, 110000 kPa	762.9	–
393.15 K, 120000 kPa	767.8	–
393.15 K, 130000 kPa	772.5	–
393.15 K, 140000 kPa	776.9	–
403.15 K, 100 kPa	666.9	–
403.15 K, 10000 kPa	680.9	–
403.15 K, 20000 kPa	692.5	268.8
403.15 K, 30000 kPa	702.8	–
403.15 K, 40000 kPa	711.7	266.4
403.15 K, 50000 kPa	719.9	–
403.15 K, 60000 kPa	727.2	265.7
403.15 K, 70000 kPa	734.1	–
403.15 K, 80000 kPa	740.4	–
403.15 K, 90000 kPa	746.5	–
403.15 K, 100000 kPa	752.1	–
403.15 K, 110000 kPa	757.4	–
403.15 K, 120000 kPa	762.5	–
403.15 K, 130000 kPa	767.2	–
403.15 K, 140000 kPa	771.8	–

CCCCCN [1-pentanamine]
Conditions	mass density, [1] [kg/m3]	molar heat capacity at constant pressure, [2] [J/K/mol]
293.15 K, 100 kPa	754	–
293.15 K, 10000 kPa	760.8	–
293.15 K, 20000 kPa	767.2	–
293.15 K, 30000 kPa	773.3	–
293.15 K, 40000 kPa	779	–
293.15 K, 50000 kPa	784.3	–
293.15 K, 60000 kPa	789.3	–
293.15 K, 70000 kPa	794	–
293.15 K, 80000 kPa	798.5	–
293.15 K, 90000 kPa	802.9	–
293.15 K, 100000 kPa	806.9	–
293.15 K, 110000 kPa	810.9	–
293.15 K, 120000 kPa	814.6	–
293.15 K, 130000 kPa	818.2	–
293.15 K, 140000 kPa	821.8	–
313.15 K, 100 kPa	–	221.7
313.15 K, 20000 kPa	–	219.7
313.15 K, 40000 kPa	–	218.3
313.15 K, 60000 kPa	–	217.9
323.15 K, 100 kPa	–	222.7
323.15 K, 20000 kPa	–	220.1
323.15 K, 40000 kPa	–	218.7
323.15 K, 60000 kPa	–	218.3
333.15 K, 100 kPa	–	223.9
333.15 K, 20000 kPa	–	220.8
333.15 K, 40000 kPa	–	219.4
333.15 K, 60000 kPa	–	218.9
343.15 K, 100 kPa	–	225.3
343.15 K, 20000 kPa	–	221.8
343.15 K, 40000 kPa	–	220.5
343.15 K, 60000 kPa	–	219.8
353.15 K, 100 kPa	698.5	226.9
353.15 K, 10000 kPa	709.4	–
353.15 K, 20000 kPa	718.5	223.3
353.15 K, 30000 kPa	726.8	–
353.15 K, 40000 kPa	734.3	221.8
353.15 K, 50000 kPa	741.2	–
353.15 K, 60000 kPa	747.6	221.1
353.15 K, 70000 kPa	753.6	–
353.15 K, 80000 kPa	759.3	–
353.15 K, 90000 kPa	764.7	–
353.15 K, 100000 kPa	769.8	–
353.15 K, 110000 kPa	774.5	–
353.15 K, 120000 kPa	779	–
353.15 K, 130000 kPa	783.5	–
353.15 K, 140000 kPa	787.7	–
363.15 K, 100 kPa	688.6	–
363.15 K, 10000 kPa	700.1	–
363.15 K, 20000 kPa	710	225.1
363.15 K, 30000 kPa	718.7	–
363.15 K, 40000 kPa	726.6	223.5
363.15 K, 50000 kPa	733.9	–
363.15 K, 60000 kPa	740.6	222.6
363.15 K, 70000 kPa	746.9	–
363.15 K, 80000 kPa	752.8	–
363.15 K, 90000 kPa	758.5	–
363.15 K, 100000 kPa	763.7	–
363.15 K, 110000 kPa	768.7	–
363.15 K, 120000 kPa	773.4	–
363.15 K, 130000 kPa	777.9	–
363.15 K, 140000 kPa	782.1	–
373.15 K, 100 kPa	679	–
373.15 K, 10000 kPa	691.5	–
373.15 K, 20000 kPa	702	227.4
373.15 K, 30000 kPa	711.3	–
373.15 K, 40000 kPa	719.6	225.5
373.15 K, 50000 kPa	727.1	–
373.15 K, 60000 kPa	734.1	224.5
373.15 K, 70000 kPa	740.5	–
373.15 K, 80000 kPa	746.7	–
373.15 K, 90000 kPa	752.3	–
373.15 K, 100000 kPa	757.6	–
373.15 K, 110000 kPa	762.7	–
373.15 K, 120000 kPa	767.6	–
373.15 K, 130000 kPa	772.2	–
373.15 K, 140000 kPa	776.6	–
383.15 K, 10000 kPa	682.6	–
383.15 K, 20000 kPa	693.8	230
383.15 K, 30000 kPa	703.7	–
383.15 K, 40000 kPa	712.3	227.8
383.15 K, 50000 kPa	720.3	–
383.15 K, 60000 kPa	727.5	226.6
383.15 K, 70000 kPa	734.3	–
383.15 K, 80000 kPa	740.6	–
383.15 K, 90000 kPa	746.5	–
383.15 K, 100000 kPa	752	–
383.15 K, 110000 kPa	757.2	–
383.15 K, 120000 kPa	762.2	–
383.15 K, 130000 kPa	766.8	–
383.15 K, 140000 kPa	771.4	–
393.15 K, 10000 kPa	673.1	–
393.15 K, 20000 kPa	685.2	232.9
393.15 K, 30000 kPa	695.5	–
393.15 K, 40000 kPa	704.7	230.4
393.15 K, 50000 kPa	713.2	–
393.15 K, 60000 kPa	720.8	229
393.15 K, 70000 kPa	727.9	–
393.15 K, 80000 kPa	734.4	–
393.15 K, 90000 kPa	740.3	–
393.15 K, 100000 kPa	746	–
393.15 K, 110000 kPa	751.4	–
393.15 K, 120000 kPa	756.5	–
393.15 K, 130000 kPa	761.4	–
393.15 K, 140000 kPa	766	–
403.15 K, 10000 kPa	664.1	–
403.15 K, 20000 kPa	677	236.3
403.15 K, 30000 kPa	687.8	–
403.15 K, 40000 kPa	697.3	233.3
403.15 K, 50000 kPa	705.9	–
403.15 K, 60000 kPa	713.9	231.8
403.15 K, 70000 kPa	721	–
403.15 K, 80000 kPa	727.8	–
403.15 K, 90000 kPa	734	–
403.15 K, 100000 kPa	739.9	–
403.15 K, 110000 kPa	745.4	–
403.15 K, 120000 kPa	750.7	–
403.15 K, 130000 kPa	755.7	–
403.15 K, 140000 kPa	760.5	–

— the NIST ThermoML archive (doi:10.1016/j.jct.2012.09.016)
